Test results from PubChem BioAssay (NCI).
“And” between values parts separate entries of the source, which are not always exact repeats. Equal values may be shown once.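 Dose response: 5 concentrations. Exposure: 48 h. Format: 96-well plates. Endpoint: linear interpolation; highest concentration if not reached. The concentration for 50% growth inhibition is given as GI50. TGI is the concentration that stops growth completely.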

tested on: HOP-92 NSCLC; assay: NCI-60 cell line screen, 48 h

Row | SMILES | TGI | GI50
1 | BrC(=C(c1ccc(OC2CCCCO2)cc1)c1ccc(OC2CCCCO2)cc1)c1ccccc1 (stereo not given) | > 100000 nM | 
2 | CC1(C)CC(=O)C(C(CC(c2ccccc2)c2cc3c(cc2O)OCO3)C2=C(O)CC(C)(C)CC2=O)=C(O)C1 (stereo not given) | > 10000 nM | 
3 | O=C(Nc1cc(C(F)(F)F)cc(C(F)(F)F)c1)c1cc(Cl)ccc1O | 418 nM and 304 nM | 120 nM and 41.2 nM
4 | N#CNC(=NCc1ccccc1)N(Cc1ccccc1)Cc1ccccc1 | > 31600 nM | 

tested on: HS 578T breast; assay: NCI-60 cell line screen, 48 h

Row | SMILES | TGI | GI50
5 | BrC(=C(c1ccc(OC2CCCCO2)cc1)c1ccc(OC2CCCCO2)cc1)c1ccccc1 (stereo not given) | > 100000 nM | 
6 | S=c1c2cn[nH]c2nc2scc(-c3ccc(Cl)cc3)n12 | 38800 nM | 
7 | O=C(Nc1cc(C(F)(F)F)cc(C(F)(F)F)c1)c1cc(Cl)ccc1O | 807 nM and 821 nM | 222 nM and 212 nM

tested on: HT29 colon; assay: NCI-60 cell line screen, 48 h

Row | SMILES | TGI | GI50
8 | CC1OC(c2ccc3c(OCc4ccccc4)cccc3c2O)CC(OCc2ccccc2)[C@H]1OCc1ccccc1 (stereo not given in full) | > 10000 nM | 
9 | BrC(=C(c1ccc(OC2CCCCO2)cc1)c1ccc(OC2CCCCO2)cc1)c1ccccc1 (stereo not given) | > 100000 nM | 
10 | S=c1c2cn[nH]c2nc2scc(-c3ccc(Cl)cc3)n12 | 32600 nM | 
11 | CC1(C)CC(=O)C(C(CC(c2ccccc2)c2cc3c(cc2O)OCO3)C2=C(O)CC(C)(C)CC2=O)=C(O)C1 (stereo not given) | > 10000 nM | 
12 | O=C(Nc1cc(C(F)(F)F)cc(C(F)(F)F)c1)c1cc(Cl)ccc1O | > 10000 nM and 12000 nM | 339 nM and 401 nM
13 | COc1ccc2/c(=C/c3ccc(N(C)C)cc3)c3cc(-c4ccccc4)[n+](C)n3c2c1 | 624 nM | 

tested on: IGROV1 ovarian; assay: NCI-60 cell line screen, 48 h

Row | SMILES | TGI | GI50
14 | CC1OC(c2ccc3c(OCc4ccccc4)cccc3c2O)CC(OCc2ccccc2)[C@H]1OCc1ccccc1 (stereo not given in full) | > 10000 nM | 
15 | BrC(=C(c1ccc(OC2CCCCO2)cc1)c1ccc(OC2CCCCO2)cc1)c1ccccc1 (stereo not given) | > 100000 nM | 
16 | CC1(C)CC(=O)C(C(CC(c2ccccc2)c2cc3c(cc2O)OCO3)C2=C(O)CC(C)(C)CC2=O)=C(O)C1 (stereo not given) | > 10000 nM | 
17 | O=C(Nc1cc(C(F)(F)F)cc(C(F)(F)F)c1)c1cc(Cl)ccc1O | > 2340 nM and 11900 nM | 271 nM and 357 nM
18 | N#CNC(=NCc1ccccc1)N(Cc1ccccc1)Cc1ccccc1 | > 31600 nM | 

tested on: K-562 leukemia; assay: NCI-60 cell line screen, 48 h

Row | SMILES | TGI [nM] | GI50
19 | CC1OC(c2ccc3c(OCc4ccccc4)cccc3c2O)CC(OCc2ccccc2)[C@H]1OCc1ccccc1 (stereo not given in full) | > 10000 | 
20 | BrC(=C(c1ccc(OC2CCCCO2)cc1)c1ccc(OC2CCCCO2)cc1)c1ccccc1 (stereo not given) | > 100000 | 
21 | S=c1c2cn[nH]c2nc2scc(-c3ccc(Cl)cc3)n12 | > 100000 | 
22 | O=C(Nc1cc(C(F)(F)F)cc(C(F)(F)F)c1)c1cc(Cl)ccc1O | > 61300 | 189 nM and 161 nM
23 | COc1ccc2/c(=C/c3ccc(N(C)C)cc3)c3cc(-c4ccccc4)[n+](C)n3c2c1 | 1150 | 
24 | N#CNC(=NCc1ccccc1)N(Cc1ccccc1)Cc1ccccc1 | > 100000 | 

tested on: KM12 colon; assay: NCI-60 cell line screen, 48 h

Row | SMILES | TGI | GI50
25 | CC1OC(c2ccc3c(OCc4ccccc4)cccc3c2O)CC(OCc2ccccc2)[C@H]1OCc1ccccc1 (stereo not given in full) | > 10000 nM | 
26 | BrC(=C(c1ccc(OC2CCCCO2)cc1)c1ccc(OC2CCCCO2)cc1)c1ccccc1 (stereo not given) | > 100000 nM | 
27 | S=c1c2cn[nH]c2nc2scc(-c3ccc(Cl)cc3)n12 | 28800 nM | 
28 | CC1(C)CC(=O)C(C(CC(c2ccccc2)c2cc3c(cc2O)OCO3)C2=C(O)CC(C)(C)CC2=O)=C(O)C1 (stereo not given) | > 10000 nM | 
29 | O=C(Nc1cc(C(F)(F)F)cc(C(F)(F)F)c1)c1cc(Cl)ccc1O | 1140 nM and 1120 nM | 318 nM and 312 nM
30 | COc1ccc2/c(=C/c3ccc(N(C)C)cc3)c3cc(-c4ccccc4)[n+](C)n3c2c1 | 1990 nM | 
31 | N#CNC(=NCc1ccccc1)N(Cc1ccccc1)Cc1ccccc1 | > 31600 nM | 

tested on: LOX IMVI melanoma; assay: NCI-60 cell line screen, 48 h

Row | SMILES | TGI | GI50
32 | BrC(=C(c1ccc(OC2CCCCO2)cc1)c1ccc(OC2CCCCO2)cc1)c1ccccc1 (stereo not given) | > 100000 nM | 
33 | S=c1c2cn[nH]c2nc2scc(-c3ccc(Cl)cc3)n12 | 23300 nM | 
34 | O=C(Nc1cc(C(F)(F)F)cc(C(F)(F)F)c1)c1cc(Cl)ccc1O | 1510 nM and 2680 nM | 316 nM and 366 nM
35 | N#CNC(=NCc1ccccc1)N(Cc1ccccc1)Cc1ccccc1 | > 31600 nM | 

tested on: M14 melanoma; assay: NCI-60 cell line screen, 48 h

Row | SMILES | TGI | GI50
36 | CC1OC(c2ccc3c(OCc4ccccc4)cccc3c2O)CC(OCc2ccccc2)[C@H]1OCc1ccccc1 (stereo not given in full) | > 10000 nM | 
37 | BrC(=C(c1ccc(OC2CCCCO2)cc1)c1ccc(OC2CCCCO2)cc1)c1ccccc1 (stereo not given) | > 100000 nM | 
38 | S=c1c2cn[nH]c2nc2scc(-c3ccc(Cl)cc3)n12 | 36300 nM | 
39 | CC1(C)CC(=O)C(C(CC(c2ccccc2)c2cc3c(cc2O)OCO3)C2=C(O)CC(C)(C)CC2=O)=C(O)C1 (stereo not given) | > 10000 nM | 
40 | O=C(Nc1cc(C(F)(F)F)cc(C(F)(F)F)c1)c1cc(Cl)ccc1O | 1250 nM and 1540 nM | 291 nM and 273 nM
41 | COc1ccc2/c(=C/c3ccc(N(C)C)cc3)c3cc(-c4ccccc4)[n+](C)n3c2c1 | 1160 nM | 
42 | N#CNC(=NCc1ccccc1)N(Cc1ccccc1)Cc1ccccc1 | > 31600 nM | 

tested on: MALME-3M melanoma; assay: NCI-60 cell line screen, 48 h

Row | SMILES | TGI | GI50
43 | CC1OC(c2ccc3c(OCc4ccccc4)cccc3c2O)CC(OCc2ccccc2)[C@H]1OCc1ccccc1 (stereo not given in full) | > 10000 nM | 
44 | BrC(=C(c1ccc(OC2CCCCO2)cc1)c1ccc(OC2CCCCO2)cc1)c1ccccc1 (stereo not given) | > 100000 nM | 
45 | S=c1c2cn[nH]c2nc2scc(-c3ccc(Cl)cc3)n12 | 49600 nM | 
46 | O=C(Nc1cc(C(F)(F)F)cc(C(F)(F)F)c1)c1cc(Cl)ccc1O | 1160 nM and 668 nM | 225 nM and 200 nM
47 | COc1ccc2/c(=C/c3ccc(N(C)C)cc3)c3cc(-c4ccccc4)[n+](C)n3c2c1 | 579 nM | 

tested on: MCF7 breast; assay: NCI-60 cell line screen, 48 h

Row | SMILES | TGI | GI50
48 | CC1OC(c2ccc3c(OCc4ccccc4)cccc3c2O)CC(OCc2ccccc2)[C@H]1OCc1ccccc1 (stereo not given in full) | > 10000 nM | 
49 | BrC(=C(c1ccc(OC2CCCCO2)cc1)c1ccc(OC2CCCCO2)cc1)c1ccccc1 (stereo not given) | > 100000 nM | 
50 | S=c1c2cn[nH]c2nc2scc(-c3ccc(Cl)cc3)n12 | 36300 nM | 
51 | O=C(Nc1cc(C(F)(F)F)cc(C(F)(F)F)c1)c1cc(Cl)ccc1O | > 10000 nM and 5260 nM | 302 nM and 269 nM
52 | N#CNC(=NCc1ccccc1)N(Cc1ccccc1)Cc1ccccc1 | > 100000 nM | 

tested on: MDA-MB-231 breast; assay: NCI-60 cell line screen, 48 h

Row | SMILES | TGI | GI50
53 | CC1OC(c2ccc3c(OCc4ccccc4)cccc3c2O)CC(OCc2ccccc2)[C@H]1OCc1ccccc1 (stereo not given in full) | > 10000 nM | 
54 | BrC(=C(c1ccc(OC2CCCCO2)cc1)c1ccc(OC2CCCCO2)cc1)c1ccccc1 (stereo not given) | > 100000 nM | 
55 | S=c1c2cn[nH]c2nc2scc(-c3ccc(Cl)cc3)n12 | > 100000 nM | 
56 | CC1(C)CC(=O)C(C(CC(c2ccccc2)c2cc3c(cc2O)OCO3)C2=C(O)CC(C)(C)CC2=O)=C(O)C1 (stereo not given) | > 10000 nM | 
57 | O=C(Nc1cc(C(F)(F)F)cc(C(F)(F)F)c1)c1cc(Cl)ccc1O | > 2170 nM and 2630 nM | 241 nM and 225 nM
58 | COc1ccc2/c(=C/c3ccc(N(C)C)cc3)c3cc(-c4ccccc4)[n+](C)n3c2c1 | 1660 nM | 
59 | N#CNC(=NCc1ccccc1)N(Cc1ccccc1)Cc1ccccc1 | 85300 nM | 

tested on: MDA-MB-435; assay: NCI-60 cell line screen, 48 h

Row | SMILES | TGI | GI50
60 | BrC(=C(c1ccc(OC2CCCCO2)cc1)c1ccc(OC2CCCCO2)cc1)c1ccccc1 (stereo not given) | > 100000 nM | 
61 | S=c1c2cn[nH]c2nc2scc(-c3ccc(Cl)cc3)n12 | 15700 nM | 
62 | CC1(C)CC(=O)C(C(CC(c2ccccc2)c2cc3c(cc2O)OCO3)C2=C(O)CC(C)(C)CC2=O)=C(O)C1 (stereo not given) | > 10000 nM | 
63 | O=C(Nc1cc(C(F)(F)F)cc(C(F)(F)F)c1)c1cc(Cl)ccc1O | 1310 nM and 1610 nM | 288 nM and 284 nM
64 | N#CNC(=NCc1ccccc1)N(Cc1ccccc1)Cc1ccccc1 | > 100000 nM | 

tested on: MDA-N; assay: NCI-60 cell line screen, 48 h

Row | SMILES | TGI [nM]
65 | CC1OC(c2ccc3c(OCc4ccccc4)cccc3c2O)CC(OCc2ccccc2)[C@H]1OCc1ccccc1 (stereo not given in full) | > 10000
66 | BrC(=C(c1ccc(OC2CCCCO2)cc1)c1ccc(OC2CCCCO2)cc1)c1ccccc1 (stereo not given) | > 100000
67 | S=c1c2cn[nH]c2nc2scc(-c3ccc(Cl)cc3)n12 | 26200
68 | CC1(C)CC(=O)C(C(CC(c2ccccc2)c2cc3c(cc2O)OCO3)C2=C(O)CC(C)(C)CC2=O)=C(O)C1 (stereo not given) | > 10000
69 | COc1ccc2/c(=C/c3ccc(N(C)C)cc3)c3cc(-c4ccccc4)[n+](C)n3c2c1 | 475
70 | N#CNC(=NCc1ccccc1)N(Cc1ccccc1)Cc1ccccc1 | > 100000

tested on: MOLT-4 leukemia; assay: NCI-60 cell line screen, 48 h

Row | SMILES | TGI | GI50
71 | CC1OC(c2ccc3c(OCc4ccccc4)cccc3c2O)CC(OCc2ccccc2)[C@H]1OCc1ccccc1 (stereo not given in full) | > 10000 nM | 
72 | BrC(=C(c1ccc(OC2CCCCO2)cc1)c1ccc(OC2CCCCO2)cc1)c1ccccc1 (stereo not given) | > 100000 nM | 
73 | S=c1c2cn[nH]c2nc2scc(-c3ccc(Cl)cc3)n12 | 60100 nM | 
74 | O=C(Nc1cc(C(F)(F)F)cc(C(F)(F)F)c1)c1cc(Cl)ccc1O | 845 nM and 2690 nM | 269 nM and 332 nM
75 | COc1ccc2/c(=C/c3ccc(N(C)C)cc3)c3cc(-c4ccccc4)[n+](C)n3c2c1 | 931 nM | 
76 | N#CNC(=NCc1ccccc1)N(Cc1ccccc1)Cc1ccccc1 | 47700 nM | 

tested on: NCI-H226 lung; assay: NCI-60 cell line screen, 48 h

Row | SMILES | TGI | GI50
77 | BrC(=C(c1ccc(OC2CCCCO2)cc1)c1ccc(OC2CCCCO2)cc1)c1ccccc1 (stereo not given) | > 100000 nM | 
78 | CC1(C)CC(=O)C(C(CC(c2ccccc2)c2cc3c(cc2O)OCO3)C2=C(O)CC(C)(C)CC2=O)=C(O)C1 (stereo not given) | > 10000 nM | 
79 | O=C(Nc1cc(C(F)(F)F)cc(C(F)(F)F)c1)c1cc(Cl)ccc1O | 992 nM and 1590 nM | 262 nM and 317 nM
80 | N#CNC(=NCc1ccccc1)N(Cc1ccccc1)Cc1ccccc1 | > 31600 nM | 

tested on: NCI-H23 lung; assay: NCI-60 cell line screen, 48 h

Row | SMILES | TGI [nM]
81 | CC1OC(c2ccc3c(OCc4ccccc4)cccc3c2O)CC(OCc2ccccc2)[C@H]1OCc1ccccc1 (stereo not given in full) | > 10000
